In article PMC12428237, “Study on the Calcium Transport-Promoting Property and Mechanism of the Peptide–Calcium Complex DEEENDQVK–Ca Based on a Caco-2 Monolayer Model” (Foods, 2025):

Columns and labels:
Assay type in all cases: cell-based, human
Caco-2 monolayer = assay: Calcium transport assay in Caco-2 monolayer model; conditions: 120 min
Procedure: Caco-2 cells (passages 15–30) were seeded at 1 × 10^5 cells/mL in Transwell chambers (12 mm, 0.4 μm pores, polycarbonate membrane, 1.12 cm^2 area) to establish a Caco-2 monolayer model. The culture medium (0.5 mL in the apical and 1.5 mL in the basolateral) was refreshed every 48 h (first week), then daily (next two weeks). The integrity of the Caco-2 cell monolayer model was verified by the following multiple indicators: Transepithelial electrical resistance (TEER) was monitored every 48 h using an epithelial voltohmmeter (RE1600, Beijing Jingong Hongtai Technology Co., Ltd., Beijing, China). Alkaline phosphatase (ALP) activity was measured on days 8, 12, 14, 16, and 21 after inoculation utilizing an ALP assay kit, following the manufacturer’s protocol. Transepithelial permeability was evaluated using sodium fluorescein following the method of Qiu et al..
Caco-2 monolayer models with a TEER value exceeding 500 Ω·cm^2 are permitted for calcium transport studies. Following three sequential washes with Hank’s balanced salt solution (HBSS; calcium/magnesium-free, pH 7.4), monolayers were equilibrated at 37 °C for 30 min. Afterward, the Transwell chambers were moved to fresh receiver plates for transport assays.
Concentration-dependent CaCl2 transport assay: 0.5 mL of CaCl2 solution (1.5~10 mM) was added to the apical (AP) side. The basolateral (BL) side contained 1.5 mL prewarmed HBSS. After 120 min incubation at 37 °C and 5% CO2, the BL side solution was collected for calcium transport analysis.
Time-dependent CaCl2 transport assay: The AP side contained 0.5 mL of 7.5 mM CaCl2 solution, and the BL side 1.5 mL prewarmed HBSS. At designated intervals (30~180 min), 1 mL BL side solution was collected and replaced with equal volumes of fresh HBSS buffer to maintain consistency.
Different concentrations of DK solution (0.5~2 mg/mL, 0.5 mL) containing 7.5 mM CaCl2, or 0.5 mL of DK–Ca solution (0.5~2 mg/mL), were added to the AP side. The BL side contained 1.5 mL prewarmed HBSS. The control group contained 7.5 mM CaCl2 alone on the AP side. At designated intervals (30~180 min), 1 mL BL side solution was collected and replaced with equal volumes of fresh HBSS buffer to maintain consistency.
Calcium concentration in the collected sample was measured using a calcium colorimetric assay kit at 575 nm. Transported calcium was calculated as follows:(1) Tn=1.5Cn+1×∑k=1n-1Ck […]

TRPV6 = assay: RT-qPCR, TRPV6 mRNA expression; conditions: Caco-2 monolayer, 24 h, 2 mg/mL DK–Ca or 2 mg/mL DK + 7.5 mM CaCl2; normalized to GAPDH, 2^-ΔΔCt; n = 3
Procedure: (§1) The expression levels of genes related to calcium transport channels were determined following the method of Li et al.. After 21 days of establishing the Caco-2 monolayer model, the monolayers were treated for 24 h with a complete medium containing 2 mg/mL DK–Ca or 2 mg/mL DK + 7.5 mM CaCl2. The group without an added sample served as the control group. Subsequently, the monolayers were washed thrice with HBSS buffer before cell lysis using 200 μL RNAiso Plus. Total RNA was extracted, and first-strand cDNA synthesis was subsequently performed with the PrimeScript® RT reagent kit as per the kit manufacturer’s instructions. Using cDNA as a template, RT-qPCR was performed with gene-specific primers targeting TRPV6, calbindin-D9k, PMCA1b, occludin, and claudin-2. The standard procedure for PCR amplification was as follows: 95 °C for 30 s, followed by 40 cycles of 95 °C for 5 s, 60 °C for 30 s, and 72 °C for 1 min. Target gene expression level was normalized to GAPDH and calculated using the 2^^(-ΔΔCt) relative quantification method. In experimental groups, GAPDH served as the internal reference gene for normalization. All primer sequences used in this study are detailed in Table S1.

claudin-2 = assay: RT-qPCR, claudin-2 mRNA expression; conditions: Caco-2 monolayer, 24 h, 2 mg/mL DK–Ca or 2 mg/mL DK + 7.5 mM CaCl2; normalized to GAPDH, 2^-ΔΔCt; n = 3
Procedure: as §1

## DEEENDQVK–Ca [DK–Ca, complex formed by chemically chelating DK with CaCl2]
Caco-2 monolayer; 2 mg/mL DK–Ca (calcium content 300 μg/mL) on AP side, AP to BL, HBSS pH 7.4, 37 °C, calcium colorimetric kit 575 nm, mean ± SD, n = 3
  transported calcium: 74.11 ± 1.25 μg/well
Caco-2 monolayer; calcium content 300 μg/mL (2 mg/mL peptide sample), AP to BL, 37 °C
  transported calcium, fold higher than that of the CaCl2 control group: 1.83 fold
Caco-2 monolayer; equivalent calcium dose (7.5 mM)
  calcium transport-promoting capacity relative to DK + CaCl2: 1.37 times
TRPV6
  TRPV6 mRNA expression, upregulation compared to the untreated control group: 2.70 fold
claudin-2
  claudin-2 mRNA expression, upregulation compared to the control group: 1.50 fold
